The text below walks through data of patent US11339442B2, “Methods of detecting insulator dysfunction and oncogene activation for screening, diagnosis and treatment of patients in need thereof” (THE GENERAL HOSPITAL CORPORATION, priority 2015, dated 2022).

“Also recorded” adds a separate entry of the source. Like-named read-outs stand apart in the source and are kept apart here.

In one data set the test system is GSC6 gliomaspheres. In words: Cell growth assay (CellTiter-Glo), GSC6 cells expressing CRISPR. It counts as cell-based, human. The conditions noted are these: 1 μM Dasatinib or 500 nM Crenolanib. The protocol:
Cell Growth Assay—For the cell growth assay, 2,500 dissociated viable GSC6 cells expressing CRISPR and either GFP or Insulator targeting sgRNA (see above) were plated in […], of media in an opaque-walled tissue culture 96 well plate, in 1 μM Dasatinib, 500 nM Crenolanib, or equivalent DMSO (1:10,000) as a vehicle control. Cell growth was analyzed at days 3, 5, and 7 for Dasatinib, or days 3, 7, and 10 for Crenolanib, using CellTiter-Glo® reagent (Promega™) following the manufacturer's protocol. Data was normalized across days using an ATP standard curve.
Background: ATP-based viability assays read luminescence as a measure of living cells.

The test system of another data set is Factor VII. The conditions noted are these: LNP siRNA systems containing the lipid; cited from earlier work.
For a further data set, the system named is PDGFRA insulator. In words: ChIP-qPCR for CTCF and H3K9me3 after dCas9 / dCas9-KRAB recruitment, HEK293 cells. It counts as cell-based. How it is done: Applicants performed these experiments at the PDGFRA insulator in HEK293 cells (FIG. 16A, Top). […] HEK293 cells were seeded into 100 mm cell culture dishes two days before transfection and grown to 60-70% confluency. […] of either dCas9 or dCas9-KRAB constitutive expression vector (JDS286 and Addgene Plasmid #50919 respectively) (FIG. 18) and 1 ug of guide RNA expression vector (pXPR1_noCas, Broad GPP) (FIG. 19) were mixed in 450ul OptiMEM. 27ul of FugeneHD was added and tubes were vortexed for two times one second, incubated at room temp for ten minutes and added dropwise to cell culture dishes.
Cells were harvested three days after transfection and crosslinked in 1% formaldehyde at 37 C for 10 min. ChIP-qPCR was performed as previously described. Briefly, cells were lysed on ice, sonicated in 0.3% SDS for 5 minutes total time at ˜10W power, incubated with the relevant antibody overnight at 4C with rotation after dilution to 0.1% SDS. Antibody-bound chromatin was isolated using protein G magnetic beads. Bound complex is washed several times and eluted off the beads at 65C for 1h with shaking. Eluted complex is treated with RNase for 30 min at 37C and protinase K for 3h at 63C while crosslinks are reversed concurrently. IP DNA is cleaned up using a 2× Ampure XP DNA bead cleanup as per manufacturer's instructions.
A general note: Quantitative PCR measures a nucleic acid by following its amplification.

The next data set concerns OLIG2 insulator. The data set is described as above. It counts as cell-based.
For data set [1] the following is noted: preclinical studies; cited from earlier work.
The test system of data set [2] is acute leukemia of all cell types in relapse. The conditions noted are these: end of trial, cited from earlier work.
The test system of data set [3] is CpG in the CTCF motif of the boundary adjacent to PDGFRA. In words: DNA methylation quantification (bisulfite sequencing), BT142 gliomaspheres treated with demethylating agent. It counts as cell-based, human. The note with it: 5 μM 5-azacytidine for 8 days.
Experimental: DNA Methylation Quantification-DNA methylation was analyzed in two ways. For gliomaspheres, genomic DNA was isolated via QiaAmp® DNA minikit (Qiagen®) and subjected to Bisulfite Conversion (EZ DNA Methylation GoldTM Kit-Zymo Research). Bisulfite converted DNA specific to the CTCF binding site (defined by JASPAR^40) in the boundary adjacent to PDGFRA was amplified using the following primers [NT]
In another data set the test system is newly diagnosed AML. The conditions noted are these: cited from earlier work.
In another data set the test system is PDGFRA. The note with it: BT142 gliomaspheres, 5 μM 5-azacytidine for 8 days.
The next data set concerns CTCF. Briefly: CTCF occupancy ChIP qPCR at the boundary adjacent to PDGFRA, BT142 gliomaspheres. The note with it: 5 μM 5-azacytidine for 8 days. In kind it is cell-based, human.
The conditions of data set [4]: compared with aza; cited from earlier work.
The conditions of data set [5]: preclinical in vitro studies; cited from earlier work.
A further data set has as its target T1, FIP1L1-PDGFRA (Homo sapiens, UniProt P16234).
T1 construct: the other entry of the earlier key: FIP1L1 (Q6UN15, Pre-mRNA 3'-end-processing factor FIP1)
The conditions noted are these: FIP1L1-PDGFRA versus BCR-ABL; cited from earlier work.

The test system of another data set is advanced leukemia or MDS. The note with it: cited from earlier work.
For a further data set, the system named is CMLs in transformation. The note with it: first 13 patients, 100 mg/m^2 over 6 h every 12 h for 5 days; cited from earlier work.
A further data set concerns MDS (RAEBT). The conditions noted are these: patients with RAEBT, 3-day course 15 mg/m^2 daily; cited from earlier work.

T1 sequence (P16234 593-1089 limits assumed): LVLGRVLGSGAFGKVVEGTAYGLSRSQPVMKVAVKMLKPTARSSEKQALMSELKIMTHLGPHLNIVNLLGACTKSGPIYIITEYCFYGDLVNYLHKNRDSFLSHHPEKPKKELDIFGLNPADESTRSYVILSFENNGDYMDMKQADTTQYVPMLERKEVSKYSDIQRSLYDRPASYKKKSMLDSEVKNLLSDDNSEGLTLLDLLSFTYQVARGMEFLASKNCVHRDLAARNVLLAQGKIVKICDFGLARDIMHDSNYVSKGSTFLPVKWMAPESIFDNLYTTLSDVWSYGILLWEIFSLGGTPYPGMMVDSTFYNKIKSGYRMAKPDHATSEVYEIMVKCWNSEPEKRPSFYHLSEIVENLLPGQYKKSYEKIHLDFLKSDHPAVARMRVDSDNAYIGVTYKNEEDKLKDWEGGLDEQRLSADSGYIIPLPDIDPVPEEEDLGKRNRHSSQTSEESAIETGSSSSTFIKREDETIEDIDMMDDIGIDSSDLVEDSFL

`CC1(COc2ccc3c(c2)ncn3-c2ccc3cccc(N4CCC(N)CC4)c3n2)COC1` [crenolanib]: the “effect on the growth advantage of insulator CRISPR gliomaspheres” value with GSC6 gliomaspheres is “abrogated”; with GSC6 gliomaspheres (listed as Crenolanib), “eliminated”.

Consider `CCCCC/C=C\C/C=C\CCCCCCCCC1(CCCCCCCC/C=C\C/C=C\CCCCC)OCC(CCN(C)C)O1` (stereo not shown) [DLinKC2-DMA, 1,2-dilinoleyl-4-(2-dimethylaminoethyl)-[1,3]-dioxolane], for which the “gene silencing potency in hepatocytes in vivo (rank series)” value (from here on “gene silencing potency in hepatocytes”) in the data set with Factor VII is reported as “DLinKC2-DMA>DLinKDMA>DLinDMA>>DLinDAP”.

Turning to “dCas9: enzymatically inactive CRISPR enzyme recruited by guide RNA to a CTCF insulator”, the “CTCF binding at the PDGFRA insulator” value in the data set on PDGFRA insulator was “potently disrupts CTCF binding; also recorded: can reduce CTCF binding”. Also, the “CTCF binding at the OLIG2 insulator” value in the data set on OLIG2 insulator was “can disrupt CTCF binding; also recorded: can reduce CTCF binding”.

For `C[C@@H](Nc1nc(N[C@H](C)C(F)(F)F)nc(-c2cccc(Cl)n2)n1)C(F)(F)F` [AG-881], the blood-brain barrier penetration entry in data set [1] is given as “fully penetrate the blood-brain barrier”.

`CCCCC/C=C\C/C=C\CCCCCCCCOCC(CN(C)C)OCCCCCCCC/C=C\C/C=C\CCCCC` (stereo not shown) [DLinDMA, 1,2-dilinoleyloxy-3-N,N-dimethylaminopropane]: in the data set on Factor VII, the “gene silencing potency in hepatocytes” value is “DLinKC2-DMA>DLinKDMA>DLinDMA>>DLinDAP”.

For the compound `Nc1ncn([C@@H]2O[C@H](CO)[C@@H](O)[C@H]2O)c(=O)n1` [5-aza, 5-azacytidine], the overall response rate in data set [2] (adult patients with acute leukemia in relapse) is 9.2%. For the same compound, the “patients achieving complete remission” value in data set [2] is “nine”. The “patients achieving partial remission” value in [2] is “two”. Also, the “reduction of methylation of the CTCF motif” value in data set [3] is about 2.5 fold. Further, the “patients with complete or partial remission” value with newly diagnosed AML (15 adult patients, 75 mg/m^2 daily s.c. for 7 days every 4 weeks) is on record as “Eight”. The “average number of cycles to remission” value with newly diagnosed AML (in vivo) is “three”. The “duration of response, average” value is reported as 8 (range, 6-13) cycles in the data set with newly diagnosed AML (patients who achieved complete remission) and 3 (range, 2-3) cycles with newly diagnosed AML (patients who achieved partial remission). Moreover, the “down-regulation of PDGFRA expression” value in the data set with PDGFRA is listed as about 5 fold. Besides, the “increase of CTCF occupancy” value in the data set on CTCF was about 1.7 fold.

In the case of `CCCCC/C=C\C/C=C\CCCCCCCC(=O)OCC(CN(C)C)OC(=O)CCCCCCC/C=C\C/C=C\CCCCC` (stereo not shown) [DLinDAP, 1,2-dilineoyl-3-dimethylammonium-propane], the “gene silencing potency in hepatocytes” value in the data set with Factor VII was “DLinKC2-DMA>DLinKDMA>DLinDMA>>DLinDAP”.

Consider “1,2-dilinoleyloxy-keto-N,N-dimethyl-3-aminopropane [DLinKDMA]”, for which the “gene silencing potency in hepatocytes” value in the data set on Factor VII was “DLinKC2-DMA>DLinKDMA>DLinDMA>>DLinDAP”.

Take `O=c1ncccn1[C@@H]1O[C@H](CO)[C@@H](O)[C@H]1O` [Zebularine]: the stability entry in data set [4] is “more stable than aza”.

With `Cc1cn(-c2cc(NC(=O)c3ccc(C)c(Nc4nccc(-c5cccnc5)n4)c3)cc(C(F)(F)F)c2)cn1` [nilotinib], the “potency relative to imatinib (factor)” value in data set [5] is 20 to 50.

Consider `Cc1ccc(NC(=O)c2ccc(CN3CCN(C)CC3)cc2)cc1Nc1nccc(-c2cccnc2)n1` [Imatinib], for which, on FIP1L1-PDGFRA, the “IC50 lower as compared to BCR-ABL” value is on record as 250 fold.

Consider `Nc1ncn([C@H]2C[C@H](O)[C@@H](CO)O2)c(=O)n1` [decitabine, 5-aza-2′-deoxycytidine], for which, in the data set with advanced leukemia or MDS (37 patients with AML), the “complete response (CR)” value is given as 14% and the “partial response (PR)” value is listed as 8%. For the same compound, in the data set on advanced leukemia or MDS (comparison group to the higher doses / longer cycles), the response rate is listed as 45%. In the data set on advanced leukemia or MDS (five patients with CML), the “patients achieving CR” value was “two” and the “patients achieving PR” value was “two”. In addition, the response rate in the data set with advanced leukemia or MDS (higher doses (20 mg/m^2 for 10 days) and longer treatment cycles (15 mg/m2 for 20 days)) is given as 11%. The “patients in whom only one cycle of therapy was required to achieve a CR” value in the data set with advanced leukemia or MDS (in vivo) is “eight of nine”. In addition, the objective responses in the data set with advanced leukemia or MDS (overall, 48 patients) is given as 33%. For the same compound, in the data set on advanced leukemia or MDS (seven patients with MDS), the “complete response (CR)” value is 28.5% and the “patients achieving PR” value is “two”. The adverse effect entry in the data set on CMLs in transformation is listed as “severe prolonged myelosuppression”. Further, the percentage of responders in the data set with MDS (RAEBT) is 70%.
